Laboratory results reported in US6043283A, “Tyramine compounds and their neuronal effects” (priority 1997, dated 2000).
“Also recorded” adds a separate entry of the source. Structures can show the parent of a compound that is named as a salt. Where two headings read alike, the source gives them in different places.

Experiments:
[1] = tested on: NTox released by Aβ1-42-stimulated microglia (neuron killing); test: cells; format: cell-based, rat; conditions: for neuroprotective activity (structure/function): Example 14
From the text: . Briefly, hippocampal cells obtained from embryonic stage 18 rat fetuses were dispersed mechanically in the presence of 0.125% trypsin and plated onto poly-L-lysine coated glass coverslips in 24 well plates at 250,000 cells per well (resulting in adhering cell densities of about 1250 cells per mm^2) in chemically-defined N2 culture media containing 5% fetal bovine serum. Gradual reduction of serum began on day 10 in vitro with daily 1:1 volume replacements with chemically-defined media, until a final concentration of 0.6% serum was achieved. […]; see FIG. 18). In order to eliminate microglia, cultures were exposed to saporin (sap; a ribosome-inactivating protein; Davis and Wiley, 1989) coupled to acetylated LDL (ac-LDL) at a concentration of 10 μg/ml for 12 hours. […] Cultures depleted of microglia were then exposed to test substances in the presence or absence of exogenous microglia (100,000 cells per culture). […]. Controls included cultures without saporin-treatment, cultures without test substances, and cultures with test substances but lacking microglia.
(§1) On day 14 of culture, immediately following saporin treatment, test substances were added to the hippocampal cultures. Synthetic peptide were supplied as 1 mM stock solutions in 0.1 M phosphate buffered saline, pH 7.2, stored for at least 1 week at 4° C. before use. After 72 hours incubation, the cultures were fixed in 4% paraformaldehyde at room temperature for 18 hours and immuno-stained by overnight incubation with a mixture of anti-neurofilament antibodies (NF; SMI-311, 1:600; Stemberger Monoclonals, Inc.) plus anti-MAP-2 (Boehringer Mannheim, 184959; 1:600) at 4° C. in the presence of 2% horse serum and 0.3% triton X-100 to delineate both neuronal cell bodies and neurites. Astroglia were visualized using sheep anti-glial fibrillary acidic protein (GFAP, Sigma) as described by Giulian et al., 1989. Finally, to label all cell nuclei, the coverslips were exposed to 0.01% bisbenzimide (Hoechst 33258; Sigma) in PBS, pH 6.9, and rinsed in distilled water and mounted in glycerin. Immuno-labeled cells per field and nuclei per field were scored at 200X magnification using fluorescence microscopy. Data were expressed as % mean survival expressed in terms of parallel untreated control cultures after scoring at least 20 randomly selected fields for each of 3 coverslips.
The procedures described above and by Giulian et al, 1996, provided for the identification of tyramine compounds as therapeutic agents for neurodegenerative diseases or disorders including, for example, Alzheimer's disease. Cells from the brain of fetal rats were grown in tissue cultures. Microglial populations within the cultures were controlled following the method described in Example 5 above. Known amounts of Aβ peptides coupled to microspheres were added to the culture. The Aβ spheres stimulated the microglia to release NTox, which in turn destroyed the neurons. The neurons in the cultures were monitored for survival by immuno-staining.
Generally, drug assays involve the addition of known concentrations of a test agent over a range of concentrations. After 72 hours, the experiment is stopped and the neurons are identified by immuno-staining. The data is expressed as % neuronal survival […]. Dose response curves are then used to estimate Effective Dose50 % (ED50) of neuroprotective agents. […].
In this experiment, about 65% of the neurons were destroyed by the Aβ-stimulated microglia. […] Other tyramine compounds, including tyrosine esters, were neuroprotective (FIG. 30).
Following the methods described herein, numerous compounds were examined to determine their neuroprotective activity. […]

NMDA receptor = test: whole cell current elicited by NMDA in Xenopus oocytes injected with NMDA R1 and R2 subunit cRNAs; format: cell-based; conditions: for effect on current elicited by NMDA: FIG. 34
From the text: FIG. 34 is a graph shorting the % maximal current peak elicited by NMDA, octopamine and tyramine compounds in the presence of a given NMDA concentration. […].
The precise mechanism of NTox that leads to the destruction of neurons is only partially characterized. Based upon extensive testing with receptor antagonists, it has been discovered that two classes of neurotransmitter receptors are involved--the n-methyl D-aspartate (NMDA) class of […] receptors and the Muscarinic (M receptors) class of cholinergic receptors. […] […]. Further study to determine if tyramine compounds act upon the NMDA receptor itself involved expression of the NMDA receptor complex in Xenopus oocytes and measurement of ionic fluxes across the oocyte membrane that are elicited by NMDA. […] […]. […] Thus, tyramine compounds appear to have several actions, one of which is upon the NMDA receptor.

rat microglia = test: binding of Aβ-coupled microspheres to microglia; conditions: 4 hours at 37° C. (72 h in FIG. 23)
[2] = format: physicochemical; conditions: chemically defined culture media, 37° C.; Table 2
From the text: Solubility of peptides is described for chemicallydefined culture media a […]

[3] = tested on: Aβ1-42-stimulated microglia; format: cell-based, rat
From the text: (§2) Briefly, hippocampal cells obtained from embryonic stage 18 rat fetuses were dispersed mechanically in the presence of 0.125% trypsin and plated onto poly-L-lysine coated glass coverslips in 24 well plates at 250,000 cells per well (resulting in adhering cell densities of about 1250 cells per mm^2) in chemically-defined N2 culture media containing 5% fetal bovine serum. Gradual reduction of serum began on day 10 in vitro with daily 1:1 volume replacements with chemically-defined media, until a final concentration of 0.6% serum was achieved. […] In order to eliminate microglia, cultures were exposed to saporin (sap; a ribosome-inactivating protein; Davis and Wiley, 1989) coupled to acetylated LDL (ac-LDL) at a concentration of 10 μg/ml for 12 hours. […] Cultures depleted of microglia were then exposed to test substances in the presence or absence of exogenous microglia (100,000 cells per culture). […] Controls included cultures without saporin-treatment, cultures without test substances, and cultures with test substances but lacking microglia.
as §1

[4] = tested on: human microglia stimulated with S5; format: cell-based;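 note: drugs applied at 10 µM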
[5] = tested on: rat microglia / hippocampal neurons; conditions: rat microglia, mostly 1 μmole/l
hippocampal neurons = format: cell-based, rat; conditions: absence of microglia
From the text: as §2, §1

human microglia = test: induction of neuron-killing human microglia; format: cell-based; conditions: 1 μmole/liter synthetic peptides
microglia = test: inhibition of SpheresAβ1-42 binding to microglia; design: species or system rat; conditions: 10 μmoles/l, 4 hours, 37° C.
Procedure: Spheresmal-BSA (which bind to scavenger receptors) or SpheresAβ1-42 were incubated with microglia for 4 hours following pre-treatment of cells with trypsin (5000 units/ml at 37° C. for 60 min followed by inactivation with soybean trypsin inhibitor), with heparinase (heparin lyase EC 4.2.2.7; two consecutive treatments each of 0.01 units/ml for 60 min), or with chondroitinase ABC (chondroitin ABC lyase EC 4.3.3.4; two consecutive treatments each of 0.02 units/ml for 60 min). […] Microglia mixed with hippocampal neurons were treated with combinations of β-D-xyloside (1 mm), heparinase (0.02 units/ml), or chondroitinase (0.04 units/ml) and then exposed to plaques.
Each well then received 250,000 SpheresAβ1-42 or Spheresmal-BSA in the presence or absence of Aβ peptides, GAGs, or scavenger receptor ligands. Binding assays were carried out at 37° C. for 4 hours after which coverslips were dipped 10 times in phosphate buffer and fixed with 4% buffered paraformaldehyde. Microsphere adherence to cells was scored at 200 magnification with phase/fluorescence microscopy. Data, expressed as % inhibition of sphere binding, was calculated from total number of spheres per field noted for control cultures receiving spheres only. Values are based upon at least 3 coverslips from 2 independent experiments. […] Washed spheres were resuspended in 0.2 M borate buffer (pH 8.5) in the presence of 300 μg Aβ or 400 μg BSA in 6% DMSO. After overnight mixing at room temperature, the spheres were washed extensively and blocked by 1 M glycine (pH 8.0) for 30 minutes.

[6] = tested on: plaque-stimulated microglia; test: blocking of plaque-induced microglial neurotoxicity; format: cell-based, rat; conditions: FIG. 16C
NTox = test: protection of neurons against isolated NTox applied directly; format: cell-based; conditions: isolated NTox; FIGS. 13, 32
From the text: FIG. 32 is a graph showing the specificity of tyramine compounds to NTox. […].
Initial studies to characterize the neuroprotective effect of tyramine compounds employed microglia-neuron co-culture assays in the presence of Aβ or isolated senile plaques. Inhibition of neuron killing in […]--inhibition of microglial activation by Aβ or plaques; inhibition of NTox production and release by microglia; or inhibition of action of NTox upon neurons. […] Effective doses in the low nmolar range show the tyramine compounds to be very potent agents compared with low μmolar range of other neuroprotective drugs under development for neurological disorders.

## NCC(O)c1ccc(O)cc1 (stereo not shown) [octopamine]
[1]
  neuroprotective activity (structure/function): little or no neuroprotective activity
NMDA receptor
  effect on current elicited by NMDA: does not alter the current measured
NMDA receptor; listed as Octopamine
  effect on current elicited by NMDA: no effect

## Aβ17-42: Aβ peptide residues 17-42 (LVFFAEDVGSNKGAIIGLMVGGVVIA; Amyloid-beta protein 42; UniProt P05067 688-713, looked up, fragment)
Rat microglia
  binding of peptide-coupled microspheres to microglia: neither binds to microglia nor elicits toxicity
[2]
  Solubility: very insoluble

## N[C@@H](Cc1ccc(O)cc1)C(=O)OCc1ccccc1 [tyrosine benzyl ester]
[1]
  neuroprotective activity (structure/function): enhance neuroprotective effects
NMDA receptor
  effect on current elicited by NMDA: inhibition of NMDA

## catalase
[3]
  drug blockade of neuron killing, rat microglia: no reduction of microglia-mediated neuron killing; also recorded: did not block microglial killing of neurons
[4]
  drug blockade of neuron killing, human microglia: no reduction of microglia-mediated neuron killing; also recorded: did not block microglial killing of neurons

## N[C@@H](CCC(=O)N[C@@H](CS)C(=O)NCC(=O)O)C(=O)O [glutathione]
[3]
  drug blockade of neuron killing, rat microglia: no reduction of microglia-mediated neuron killing; also recorded: did not block microglial killing of neurons
[4]
  drug blockade of neuron killing, human microglia: no reduction of microglia-mediated neuron killing; also recorded: did not block microglial killing of neurons

## Aβ1-43: small Aβ peptide (as printed)
[5]
  induction of neurotoxic microglia / neuron killing: did not produce neurotoxicity
Hippocampal neurons
  direct neurotoxicity without microglia: did not produce neurotoxicity

## CC(C(O)c1ccc(O)cc1)N1CCC(Cc2ccccc2)CC1 (stereo not shown) [ifenprodil]
[3]
  drug blockade of neuron killing, rat microglia: prevented neuronal loss; also recorded: blocked neuron death
[4]
  drug blockade of neuron killing, human microglia: blocked neuron death

## CC(=N)NCCC[C@H](N)C(=O)O [L-NIO, L-N-5-(1-imino-ethyl)-ornithine hydrochloride]
[3]; hydrochloride
  drug blockade of neuron killing, rat microglia: no reduction of microglia-mediated neuron killing; also recorded: No protective effects were observed
[4]; hydrochloride
  drug blockade of neuron killing, human microglia: no reduction of microglia-mediated neuron killing; also recorded: No protective effects were observed

## rodent Aβ1-40: rodent Aβ1-40 (5Arg-Gly, 10Tyr-Phe, 13His-Arg) (DAEFGHDSGFEVRHQKLVFFAEDVGSNKGAIIGLMVGGVV; Amyloid-beta protein 40; UniProt P12023 672-711, looked up)
Rat microglia
  binding of peptide-coupled microspheres to microglia: little cell binding
Human microglia
  induction of neurotoxic human microglia: inactive
[5]
  induction of neurotoxic microglia / neuron killing: did not activate microglia
[5]; listed as Aβ1-40rodent
  induction of neurotoxic microglia / neuron killing: neither
[5]; listed as Rodent Aβ1-40
  induction of neurotoxic microglia / neuron killing: did not activate microglia
[5]; listed as rodent form of Aβ1-40
  induction of neurotoxic microglia / neuron killing: inactive
microglia
  inhibition of SpheresAβ1-42 binding by peptides: unable to block

## vitamin E
[3]
  drug blockade of neuron killing, rat microglia: no reduction of microglia-mediated neuron killing; also recorded: did not block microglial killing of neurons
[4]
  drug blockade of neuron killing, human microglia: no reduction of microglia-mediated neuron killing; also recorded: did not block microglial killing of neurons

## Aβ13-20: Aβ peptide residues 13-20 (HHQKLVFF; Amyloid-beta protein 42; UniProt P05067 684-691, looked up, fragment)
[3]; read-out: ED50 (blocking of Aβ1-42 induced neurotoxicity), FIG. 16B
  IC50: 250 nM
[6]
  blocking of plaque-induced microglial toxicity by peptides: blocked plaque-induced toxicity in vitro

## CC(C)(C)OC(=O)[C@@H](N)Cc1ccc(O)cc1 [tyrosine t-butyl ester]
[1]; Aβ1-42-stimulated microglia
  neuroprotective effect: most potent neuroprotectant tested
[1]
  neuroprotective activity (structure/function): enhance neuroprotective effects
[1]; Rattus norvegicus, Aβ-stimulated microglia, 72 h, FIG. 31, read-out: ED50 (neuroprotection)
  EC50: 2 nM
NTox
  inhibition of killing action of NTox applied to neurons: killing action of NTox is inhibited
NMDA receptor; 300 μM
  effect on NMDA-stimulated voltage change across oocyte membrane: blocked
NMDA receptor
  effect on current elicited by NMDA: inhibition of NMDA
